{"source": "patent US20210145842A1", "about": "“NEW THERAPEUTIC USES” (NOVARTIS AG, priority 2018, published 2021)", "key": {"patients [1]": {"test_system": "patients", "settings": "human, in vivo; cited from earlier work"}, "patients with NSCLC": {"test_system": "patients with NSCLC", "settings": "in vivo; cited from earlier work"}, "[2]": {"assay": "Distribution of nazartinib to the brain in a preclinical model", "assay_type": "in vivo"}, "[3]": {"test_system": "patients with EGFR T790M-mutant NSCLC who were third-generation EGFR TKI naïve", "procedure": "Patients were screened for eligibility across six subgroups according to EGFR mutation status and prior therapy, and treated with nazartinib 75-350 mg (capsule or tablet formulation) orally, once daily (QD), on a continuous 28-day dosing schedule. The primary objective of the Phase I part was to determine the maximum tolerated dose and/or recommended Phase II dose (RP2D).\nThis was a Phase I/II, multicenter, open-label study of nazartinib in patients with locally advanced/metastatic EGFR-mutant NSCLC.\nNazartinib was administered orally, once daily (QD), on a continuous, 28-day cycle dosing schedule. The starting dose for the Phase I part was 75 mg in capsule formulation. Nazartinib in tablet formulation was also introduced during Phase I. Patients were treated across the following QD dose groups: 75 mg, 100 mg, 150 mg, 200 mg, 225 mg, 300 mg, and 350 mg. Initial cohorts consisted of 1-6 patients.\nPatients treated with capsule or with tablet at the same dose level were pooled together into a single treatment group for safety and efficacy analyses. The Full Analysis Set (FAS) consists of all patients who received ≥1 dose of the study drug. Efficacy analyses were performed on all patients in the FAS who had baseline and post-baseline tumor assessment data or who had discontinued prior to post-baseline tumor assessment, and excluded patients with tumors that were wild-type at EGFR T790 or who had received prior third-generation EGFR TKIs, unless otherwise noted.\nDuration of response (DoR) and PFS were described using the Kaplan-Meier method."}, "[4]": {"test_system": "EGFR mutant (L858R, ex19del and T790M) cancer models", "settings": "cited from earlier work"}, "[5]": {"test_system": "patients with advanced EGFR-mutant NSCLC harbouring activating EGFR L858R and/or ex19del mutations"}, "[6]": {"test_system": "patients with metastatic NSCLC containing EGFR ex19del or L858R substitution mutations", "settings": "EURTAC; erlotinib 150 mg once daily; cited from earlier work"}, "patients [7]": {"test_system": "patients", "settings": "pooled analysis; cited from earlier work"}, "[8]": {"test_system": "patients with EGFR T790M+ NSCLC", "settings": "cited from earlier work; for hazard ratio for PFS: 95% CI"}, "[9]": {"test_system": "patients with EGFR mutant NSCLC", "settings": "cited from earlier work"}, "[10]": {"settings": "Brain metastases absent at baseline, 14 evaluable patients, preliminary data"}, "[11]": {"settings": "Brain metastases present at baseline, 10 evaluable patients, preliminary data"}}, "note": "Several values for one entry are separate records, joined by “and”; a condition that tells them apart may be missing. Equal values may be shown once. Read-outs that look alike come from different tables or passages of the source.", "data": [{"smiles": "COc1cc2ncnc(Nc3ccc(F)c(Cl)c3)c2cc1OCCCN1CCOCC1", "note": "[gefitinib]", "values": [{"measurement": "patients who stopped therapy due to an adverse drug reaction", "setting": "patients [1]", "value": "Approximately 3%"}, {"measurement": "patients with a severe adverse drug reaction (grade 3 or 4)", "setting": "patients [1]", "value": "Approximately 8%"}, {"measurement": "PFS obtained following treatment", "setting": "patients with NSCLC", "value": 9.5, "unit": "months"}]}, {"smiles": "Cc1cc(C(=O)Nc2nc3cccc(Cl)c3n2[C@@H]2CCCCN(C(=O)/C=C/CN(C)C)C2)ccn1", "note": "[nazartinib, (R,E)-N-(7-chloro-1-(1-(4-(dimethylamino)but-2-enoyl)azepan-3-yl)-1H-benzo [d]imidazol-2-yl)-2-methylisonicotinamide]", "values": [{"measurement": "distribution to the brain", "setting": "[2]", "value": "minimal"}, {"measurement": "Among patients who progressed: Both A and B (A: progression in brain, B: outside of brain, at first PD)", "setting": "[3]; 75 mg QD, N = 12", "value": 1, "unit": "patients"}, {"measurement": "Among patients who progressed: Only A, not B (A: progression in brain, B: outside of brain, at first PD)", "setting": "[3]; 75 mg QD, N = 12", "value": 1, "unit": "patients"}, {"measurement": "Among patients with baseline brain metastasis who progressed: Both A and B (A: progression in brain, B: outside of brain, at first PD)", "setting": "[3]; 100 mg QD, N = 34", "value": 2, "unit": "patients"}, {"measurement": "Among patients with baseline brain metastasis who progressed: Only A, not B (A: progression in brain, B: outside of brain, at first PD)", "setting": "[3]; 100 mg QD, N = 34", "value": 1, "unit": "patients"}, {"measurement": "Best response of brain non-target lesions: Absent/normalized", "setting": "[3]; 100 mg QD, N = 34", "value": 1, "unit": "patients"}, {"measurement": "ORR", "setting": "[3]; 150 mg QD dose level", "value": 46, "unit": "%"}, {"measurement": "Best response of brain non-target lesions: Absent/normalized", "setting": "[3]; 150 mg QD, N = 68", "value": 3, "unit": "patients"}, {"measurement": "Among patients who progressed: Only A, not B (A: progression in brain, B: outside of brain, at first PD)", "setting": "[3]; 200 mg QD, N = 8", "value": 1, "unit": "patients"}, {"measurement": "Among patients who progressed: Only B, not A (A: progression in brain, B: outside of brain, at first PD)", "setting": "[3]; 200 mg QD, N = 8", "value": 6, "unit": "patients"}, {"measurement": "HBV reactivation leading to hepatic failure and death", "setting": "[3]; 225 mg QD", "value": "one"}, {"measurement": "Among patients who progressed: Only B, not A (A: progression in brain, B: outside of brain, at first PD)", "setting": "[3]; 225 mg QD, N = 24", "value": 16, "unit": "patients"}, {"measurement": "Among patients with baseline brain metastasis who progressed: Only A, not B (A: progression in brain, B: outside of brain, at first PD)", "setting": "[3]; 225 mg QD, N = 24", "value": 1, "unit": "patients"}, {"measurement": "Among patients with baseline brain metastasis who progressed: Only B, not A (A: progression in brain, B: outside of brain, at first PD)", "setting": "[3]; 225 mg QD, N = 24", "value": 6, "unit": "patients"}, {"measurement": "Best response of brain non-target lesions: Absent/normalized", "setting": "[3]; 225 mg QD, N = 24", "value": 3, "unit": "patients"}, {"measurement": "best overall response rate across doses", "setting": "[3]; 162 evaluable patients with EGFR T790M-positive tumors naïve to third-generation EGFR TKIs, 95% CI: 43-59", "value": 51, "unit": "%"}, {"measurement": "Among patients with baseline brain metastasis who progressed: Only A, not B (A: progression in brain, B: outside of brain, at first PD)", "setting": "[3]; All patients, N = 162", "value": "five"}, {"measurement": "Best response of brain non-target lesions: Absent/normalized", "setting": "[3]; All patients, N = 162", "value": "16% and 14%"}, {"measurement": "median duration of response", "setting": "[3]; across doses, EGFR T790M-positive, third-generation EGFR TKI naïve", "value": 11.0, "unit": "months"}, {"measurement": "median progression-free survival (PFS)", "setting": "[3]; across doses, 95% CI: 7.3-11.1", "value": 9.1, "unit": "months"}, {"measurement": "most common adverse events", "setting": "[3]; human, in vivo", "value": "rash, diarrhea, and pruritus"}, {"measurement": "overall disease control rate (DCR)", "setting": "[3]; patients with EGFR T790M-positive tumors naïve to third-generation EGFR TKIs", "value": "89% and 87%"}, {"measurement": "brain metastases at first post-baseline evaluation (single case)", "setting": "[3]; person, EGFR ex19del/T790M NSCLC, numerous small brain metastases at baseline", "value": "no longer radiologically detectable"}, {"measurement": "duration of overall partial response (single case)", "setting": "[3]; person, EGFR ex19del/T790M NSCLC, numerous small brain metastases at baseline, no prior local therapy to the brain", "value": 11.1, "unit": "months"}, {"measurement": "anti-tumor efficacy", "setting": "[4]; several xenograft models", "value": "Dose-dependent anti-tumor efficacy"}, {"measurement": "tolerability, body weight", "setting": "[4]; xenograft models, efficacious doses", "value": "well tolerated with no body weight loss"}, {"measurement": "6-month duration of response rate (DoR)", "setting": "[5]; 150 mg once daily", "value": 91, "unit": "%"}, {"measurement": "6-month overall survival rate", "setting": "[5]; 150 mg once daily", "value": 95, "unit": "%"}, {"measurement": "6-month progression-free survival rate", "setting": "[5]; 150 mg once daily", "value": 83, "unit": "%"}, {"measurement": "disease control rate", "setting": "[5]; 150 mg once daily", "value": 93, "unit": "%"}, {"measurement": "patients who achieved complete response", "setting": "[5]; 150 mg once daily, 45 patients", "value": "One"}, {"measurement": "ORR per RECIST v1.1 by BICR", "setting": "[5]; 150 mg once daily, 45 patients, 95% CI 49%-78%", "value": 64, "unit": "%"}, {"measurement": "patients who demonstrated a response", "setting": "[5]; 150 mg once daily, of 45 patients", "value": "Twenty-nine"}, {"measurement": "Best overall response per BIRC: Progressive disease (PD)", "setting": "[5]; [10]", "value": 0, "unit": "patients"}, {"measurement": "Disease control rate (CR + PR + SD + NCRNPD) per BIRC", "setting": "[5]; [10]", "value": 14, "unit": "patients"}, {"measurement": "Overall response rate per BIRC", "setting": "[5]; [10]", "value": 11, "unit": "patients"}, {"measurement": "Best overall response per BIRC: Complete response (CR)", "setting": "[5]; [11]", "value": 0, "unit": "patients"}, {"measurement": "Best overall response per BIRC: Non-CR/non-PD (NCRNPD)", "setting": "[5]; [11]", "value": 0, "unit": "patients"}, {"measurement": "Disease control rate (CR + PR + SD + NCRNPD) per BIRC", "setting": "[5]; [11]", "value": 9, "unit": "patients"}, {"measurement": "Overall response rate per BIRC", "setting": "[5]; [11]", "value": 5, "unit": "patients"}, {"measurement": "patients who developed a new brain metastasis on study", "setting": "[5]; of the 27 patients without baseline brain metastasis", "value": "One"}, {"measurement": "responses ongoing at data cutoff", "setting": "[5]; of the 29 responding patients, cutoff 22 Mar. 2018", "value": 27, "unit": "patients"}, {"measurement": "brain post-baseline scan versus baseline by BIRC (single case)", "setting": "[5]; person, Cycle 5 Day 1 (study day 113), no prior treatment for brain metastases", "value": "complete normalization of brain lesion"}]}, {"smiles": "C#Cc1cccc(Nc2ncnc3cc(OCCOC)c(OCCOC)cc23)c1", "note": "[erlotinib]", "values": [{"measurement": "median PFS as assessed by the investigator", "setting": "[6]", "value": 9.7, "unit": "months"}, {"measurement": "PFS obtained following treatment", "setting": "patients with NSCLC", "value": 9.7, "unit": "months"}, {"measurement": "ILD occurrence", "setting": "patients [7]", "value": 1.1, "unit": "%"}]}, {"smiles": "C=CC(=O)Nc1cc(Nc2nccc(-c3cn(C)c4ccccc34)n2)c(OC)cc1N(C)CCN(C)C", "note": "[osimertinib]", "values": [{"measurement": "PFS obtained following treatment", "setting": "patients with NSCLC", "value": 10.2, "unit": "months"}, {"measurement": "median duration of response", "setting": "[8]; AURA3", "value": 9.7, "unit": "month"}, {"measurement": "median PFS", "setting": "[8]; osimertinib arm of AURA3", "value": 10.1, "unit": "months"}, {"measurement": "hazard ratio for PFS", "setting": "[8]; overall population, 0.23-0.41", "value": 0.30}, {"measurement": "hazard ratio for PFS", "setting": "[8]; patients with CNS metastases, 0.21-0.49", "value": 0.32}, {"measurement": "investigator reported median progression-free survival", "setting": "[9]; FLAURA first-line", "value": 18.9, "unit": "months"}, {"measurement": "median duration of response", "setting": "[9]; FLAURA first-line", "value": 17.2, "unit": "months"}, {"measurement": "objective response rate (ORR)", "setting": "[9]; FLAURA first-line", "value": 80, "unit": "%"}, {"measurement": "adverse event: diarrhea", "setting": "[9]; any cause", "value": 58, "unit": "%"}, {"measurement": "adverse event: dry skin", "setting": "[9]; any cause", "value": 36, "unit": "%"}, {"measurement": "adverse event: rash or acne", "setting": "[9]; any cause", "value": 58, "unit": "%"}, {"measurement": "AEs of grade 3 or higher", "setting": "[9]; in vivo", "value": 34, "unit": "%"}, {"measurement": "survival rate at 18 months", "setting": "[9]; interim analysis", "value": 83, "unit": "%"}, {"measurement": "HR for disease progression or death", "setting": "[9]; osimertinib vs standard EGFR-TKIs, 95% CI 0.37 to 0.57, P<0.001", "value": 0.46}, {"measurement": "hazard ratio for death", "setting": "[9]; osimertinib vs standard EGFR-TKIs, 95% CI, 0.45 to 0.88, P=0.007", "value": 0.63}, {"measurement": "odds ratio for ORR", "setting": "[9]; osimertinib vs standard EGFR-TKIs, 95% CI, 0.85 to 1.90, P=0.24", "value": 1.27}]}]}
